Consider one molecule from US6727234B2, “Isoprenoid analog compounds and methods of making and use thereof” (University of Iowa Research Foundation, priority 2001, dated 2004).

In one series the test system is cell membranes. Kind of series: Penetration of cell membranes to afford fluorescent cells. In kind it is cell-based. The following applies: affords fluorescent cells.
Series [1] can be described thus: Fluorescence of the compound. In kind it is physicochemical. The text has this: Compound 58 can be used in enzyme experiments with FPTase and Ras in order to obtain standard Ras proteins labeled with the fluorescent isoprenoid analog. Similarly compound 62 can be used with GGPTase I or II and proteins such as Rho B to obtain other protein standards. Protein standards obtained from in vitro experiments can then be used to analyze cell lysates for the formation of analogous proteins through in vivo experiments. Compound 58 ^1H NMR(D2O) δ7.6 (1H), 7.2 (1H), 6.4 (2H), 5.4 (1H), 5.2 (1H), 4.4 (2H), 3.6 (3H), 3.4 (2H), 2.0 (2H), 1.8 (2H), 1.6 (3H), 1.4 (3H); and ^31P NMR −6.9 (d, 1P) −9.75 (d, 1P).

Series [2] is described as follows: Metabolic stability compared to previously prepared analogs. In kind it is in vitro ADME. The following applies: compared to other previously prepared analogs; attributed to amine linkage binding anthranilic acid to the terpenoid chain. The text has this: As exemplified in the reaction scheme below, Fischer esterification of commercial anthranilic acid provides the corresponding amino ester 54. Reductive amination of amine 54 with aldehyde 55, derived from SeO2 oxidation of geranyl acetate and subsequent MnO2 oxidation, gave the desired amine 56 and subsequent cleavage of the acetate gave the farnesol analog 57.

For the molecule `COC(=O)c1ccccc1NC/C(C)=C/CC/C(C)=C/CO` [Compound 57], the “penetration of cell membranes” value with cell membranes is listed as “readily penetrates cell membranes”. Also, the fluorescence result in series [1] is reported as “highly fluorescent”. In addition, the metabolic stability entry in series [2] is “much greater degree of metabolic stability”.
